Patent US20200333324A1, “METHOD OF PREDICTING CLINICAL OUTCOME OF ANTICANCER AGENTS” (MITRA RXDX, INC., priority 2017, published 2020)

Assays:
Assay type in all cases: cell-based, human
HNSCC tumor tissue [1] = experiment: Granzyme B and Perforin secretion assays, HNSCC tumor sections in tumor microenvironment platform; details: predicted non-responder, 48 hours
Procedure: FIGS. 9A and 9B show quantification of results for Granzyme B and Perforin secretion assays for HNSCC tumor tissue cultured in the tumor microenvironment platform treated with Pembrolizumab, Nivolumab, or IgG control for 24 or 48 hours.
HNSCC tumor sections from the same patient cultured for 24 or 48 hours in the tumor microenvironment platform with Pembrolizumab, Nivolumab, or IgG as control were assayed for Granzyme B and Perforin secretion. Results are shown in FIG. 9A for the tumor microenvironment platform with tumor tissue from a predicted responder and FIG. 9B for the tumor microenvironment platform with tumor tissue from a predicted non-responder. After treatment with Pembrolizumab for 48 hours, there was an increase in both Granzyme B and Perforin secretion in the tumor microenvironment platform with tissue from the predicted responder compared to treatment with the control IgG. By contrast, at 48 hours in the tumor microenvironment platform with tissue from the predicted non-responder there was no increase in Granzyme B or Perforin secretion for treatment with either Pembrolizumab or Nivolumab.

HNSCC tumor tissue [2] = experiment: FACS analysis for CD3 and CD8 (CD8+ T cell infiltration) in tumor microenvironment platform; details: vs IgG control
Procedure: (§1) The effect of Pembrolizumab and Nivolumab on CD8^+ T cell tumor infiltration was then evaluated. Tumor sections from the same patient cultured for 72 hours in the tumor microenvironment platform were treated with Pembrolizumab, Nivolumab, or IgG as control and stained for H&E, Ki67, Caspase 3, and CD8 at day 3 in culture (T3). Baseline staining was determined at TO. […] To further elucidate the effects of the anti-PD-1 antibodies, FACS analysis was performed on tumor tissue from patient 2941 and patient 2942 treated with either Pembrolizumab, Nivolumab, or IgG control. […] By contrast, there was no effect of either Pembrolizumab or Nivolumab on CD8^+ T cell infiltration for patient 2942, further highlighting the differential response between individuals to PD-1 blockade. CD8^+ T cell infiltration was evaluated in the tumor microenvironment platform with tumor tissue from the same patient, and comparisons for control vs Nivo, control vs Pembro, Nivo vs Pembro, and control vs Nivo vs Pembro for multiple patients are shown in FIG. 6 (each line represents results from the tumor microenvironment platform cultured with tumor tissue from a single individual).

HNSCC tumor tissue [3] = experiment: IHC for CD8, PD-L1, PD-1 and FOXP3 positive cells in tumor microenvironment platform; details: T3
Procedure: as §1
The effect of Pembrolizumab and Nivolumab on the expression of immunoregulatory molecules, including PD-1 and FOXP3, in the tumor microenvironment platform tumor microbed was evaluated. Tumor sections from the same patient cultured for 3 days (72 hours) in the tumor microenvironment platform were treated with Pembrolizumab, Nivolumab, or IgG control and stained for CD8, FOXP3, and PD-1 at day 3 in culture (T3). Baseline staining was determined at TO. Results are shown in FIG. 7A for tumor sections from a predicted responder to Pembrolizumab or Nivolumab and FIG. 7B for a predicted non-responder to Pembrolizumab or Nivolumab, as characterized by M-score. There was in increase in the number of PD-1^+ cells in the tumor microbed for both Pembrolizumab and Nivolumab, which was to a greater degree in the case of Nivolumab, when compared to IgG control in the responder (FIG. 7A). There was no change for either Pembrolizumab and Nivolumab in the non-responder (FIG. 7B). The numbers of PD-L1^+ tumor cells, PD-1^+ T cells, FOXP3^+ T-regulatory cells, and CD8^+ T cells were evaluated using the tumor microenvironment platform with tumor tissue from the same patient in Nivolumab, Pembrolizumab, and control conditions, and are summarized in Table 3. Comparisons for control vs Nivo, control vs Pembro, Nivo vs Pembro, and control vs Nivo vs Pembro for multiple patients are shown in FIG. 8 (each line represents results from the tumor microenvironment platform cultured with tumor tissue from a single individual).

HNSCC tumor tissue [4] = experiment: M-score clinical outcome predictor: tumor microenvironment platform assays (WST-1, LDH, ATP, glucose uptake, Caspase 3/8, Ki67, H&E) input into machine-trained algorithm; design: scale not given here
Source text: Utilizing primary and late stage HNSCC patient samples (n=16) we interrogated phenotypic response to both Pembrolizumab (KEYTRUDA) and Nivolumab (OPDIVO), two FDA-approved PD-1 inhibitors, as single agents on the tumor microenvironment platform with tumor tissue from the same patient. To do this, we assayed tumor proliferation (Ki67) and apoptosis (active caspase-3), in addition to using a comprehensive panel of immunological assays to evaluate changes in the immune compartment (CD8, CD45, FOXP3, CXCR4, CD68, PDL1, PD1) and cytokine profile (IL6, IL8, IFN-g and IL12).

## Nivolumab
HNSCC tumor tissue [1]
  Granzyme B secretion: no increase
  Perforin secretion: no increase
HNSCC tumor tissue [2]; patient 2941
  CD8^+ T cell infiltration (FACS): increase
HNSCC tumor tissue [2]; patient 2942
  CD8^+ T cell infiltration (FACS): no effect
HNSCC tumor tissue [3]; Patient ID 2916, control 0
  # cells/field PD-1^+: 0 cells/field
HNSCC tumor tissue [3]; Patient ID 2916, control 1
  # cells/field PD-L1^+: 2 cells/field
HNSCC tumor tissue [3]; Patient ID 2916, control 3
  # cells/field FOXP3^+: 4 cells/field
HNSCC tumor tissue [3]; Patient ID 2916, control 20
  # cells/field CD8^+: 30 cells/field
HNSCC tumor tissue [3]; Patient ID 2918, control 2
  # cells/field PD-1^+: 0 cells/field
HNSCC tumor tissue [3]; Patient ID 2918, control 3
  # cells/field FOXP3^+: 2 cells/field
HNSCC tumor tissue [3]; Patient ID 2918, control 10
  # cells/field CD8^+: 3 cells/field
  # cells/field PD-L1^+: 20 cells/field
HNSCC tumor tissue [3]; Patient ID 2926, control 0
  # cells/field PD-1^+: 0 cells/field
HNSCC tumor tissue [3]; Patient ID 2926, control 3
  # cells/field PD-L1^+: 3 cells/field
HNSCC tumor tissue [3]; Patient ID 2926, control 4
  # cells/field FOXP3^+: 3 cells/field
HNSCC tumor tissue [3]; Patient ID 2926, control 25
  # cells/field CD8^+: 20 cells/field
HNSCC tumor tissue [3]; Patient ID 2928, control 0
  # cells/field PD-1^+: 0 cells/field
  # cells/field PD-L1^+: 3 cells/field
HNSCC tumor tissue [3]; Patient ID 2928, control 4
  # cells/field CD8^+: 15 cells/field
  # cells/field FOXP3^+: 5 cells/field
HNSCC tumor tissue [3]; Patient ID 2939, control 0
  # cells/field CD8^+: 2 cells/field
  # cells/field PD-1^+: 0 cells/field
HNSCC tumor tissue [3]; Patient ID 2939, control 1
  # cells/field FOXP3^+: 2 cells/field
HNSCC tumor tissue [3]; Patient ID 2939, control 10
  # cells/field PD-L1^+: 10 cells/field
HNSCC tumor tissue [3]; Patient ID 2941, control 0
  # cells/field PD-1^+: 2 cells/field
HNSCC tumor tissue [3]; Patient ID 2941, control 3
  # cells/field FOXP3^+: 2 cells/field
  # cells/field PD-L1^+: 5 cells/field
HNSCC tumor tissue [3]; Patient ID 2941, control 5
  # cells/field CD8^+: 3 cells/field
HNSCC tumor tissue [3]; Patient ID 2942, control 0
  # cells/field PD-1^+: 0 cells/field
  # cells/field PD-L1^+: 0 cells/field
HNSCC tumor tissue [3]; Patient ID 2942, control 3
  # cells/field CD8^+: 1 cells/field
  # cells/field FOXP3^+: 4 cells/field
HNSCC tumor tissue [3]; Patient ID 2948, control 1
  # cells/field FOXP3^+: 1 cells/field
  # cells/field PD-1^+: 0 cells/field
HNSCC tumor tissue [3]; Patient ID 2948, control 10
  # cells/field PD-L1^+: 1 cells/field
HNSCC tumor tissue [3]; Patient ID 2948, control 20
  # cells/field CD8^+: 20 cells/field
HNSCC tumor tissue [3]; Patient ID 2949, control 1
  # cells/field PD-1^+: 3 cells/field
HNSCC tumor tissue [3]; Patient ID 2949, control 5
  # cells/field FOXP3^+: 5 cells/field
HNSCC tumor tissue [3]; Patient ID 2949, control 20
  # cells/field PD-L1^+: 20 cells/field
HNSCC tumor tissue [3]; Patient ID 2949, control 50
  # cells/field CD8^+: 35 cells/field
HNSCC tumor tissue [3]; Patient ID 2956, control 0
  # cells/field PD-1^+: 0 cells/field
HNSCC tumor tissue [3]; Patient ID 2956, control 1
  # cells/field CD8^+: 7 cells/field
HNSCC tumor tissue [3]; Patient ID 2956, control 2
  # cells/field PD-L1^+: 3 cells/field
HNSCC tumor tissue [3]; Patient ID 2956, control 8
  # cells/field FOXP3^+: 10 cells/field
HNSCC tumor tissue [3]; Patient ID 2963, control 0
  # cells/field PD-1^+: 0 cells/field
HNSCC tumor tissue [3]; Patient ID 2963, control 6
  # cells/field CD8^+: 4 cells/field
HNSCC tumor tissue [3]; Patient ID 2963, control 10
  # cells/field FOXP3^+: 2 cells/field
HNSCC tumor tissue [3]; Patient ID 2963, control 12
  # cells/field PD-L1^+: 12 cells/field
HNSCC tumor tissue [3]; Patient ID 2978, control 0
  # cells/field PD-1^+: 0 cells/field
HNSCC tumor tissue [3]; Patient ID 2978, control 1
  # cells/field FOXP3^+: 1 cells/field
  # cells/field PD-L1^+: 1 cells/field
HNSCC tumor tissue [3]; Patient ID 2978, control 12
  # cells/field CD8^+: 17 cells/field
HNSCC tumor tissue [3]; Patient ID 2979, control 0
  # cells/field PD-1^+: 0 cells/field
HNSCC tumor tissue [3]; Patient ID 2979, control 2
  # cells/field FOXP3^+: 1 cells/field
HNSCC tumor tissue [3]; Patient ID 2979, control 5
  # cells/field PD-L1^+: 5 cells/field
HNSCC tumor tissue [3]; Patient ID 2979, control 25
  # cells/field CD8^+: 25 cells/field
HNSCC tumor tissue [3]; Patient ID 2980, control 0
  # cells/field PD-1^+: 0 cells/field
HNSCC tumor tissue [3]; Patient ID 2980, control 1
  # cells/field FOXP3^+: 1 cells/field
HNSCC tumor tissue [3]; Patient ID 2980, control 8
  # cells/field PD-L1^+: 1 cells/field
HNSCC tumor tissue [3]; Patient ID 2980, control 30
  # cells/field CD8^+: 10 cells/field
HNSCC tumor tissue [3]; Patient ID 2981, control 0
  # cells/field FOXP3^+: 1 cells/field
  # cells/field PD-1^+: 0 cells/field
  # cells/field PD-L1^+: 0 cells/field
HNSCC tumor tissue [3]; Patient ID 2981, control 1
  # cells/field CD8^+: 15 cells/field
HNSCC tumor tissue [3]; patient 2941, vs IgG control
  CD8^+ T cell infiltration (IHC): increased CD8^+ T cell infiltration
HNSCC tumor tissue [3]; predicted non-responder, vs IgG control
  number of PD-1^+ cells in the tumor microbed: no change
HNSCC tumor tissue [3]; predicted responder, vs IgG control, to a greater degree in the case of Nivolumab
  number of PD-1^+ cells in the tumor microbed: increase
HNSCC tumor tissue [4]; Patient ID 2918
  M-score: 27
HNSCC tumor tissue [4]; Patient ID 2928
  M-score: 19
HNSCC tumor tissue [4]; Patient ID 2941
  M-score: 41
HNSCC tumor tissue [4]; Patient ID 2948
  M-score: 12
HNSCC tumor tissue [4]; Patient ID 2949
  M-score: 11
HNSCC tumor tissue [4]; Patient ID 2956
  M-score: 10
HNSCC tumor tissue [4]; Patient ID 2978
  M-score: 33
HNSCC tumor tissue [4]; Patient ID 2981
  M-score: 6
